Test results taken from ChEMBL document CHEMBL1135870, “4-Aminoquinolines as a novel class of NR1/2B subtype selective NMDA receptor antagonists” (Bioorg Med Chem Lett, 2002).

Key:
Glutamate NMDA receptor = assay: Binding affinity against N-methyl-D-aspartate glutamate receptor using [3H]25-6981 as radioligand.; format: protein-complex assay
[1] = The ionization constant for the compound was tested using a potentiometric method.; format: physicochemical
Mus musculus = assay: In vivo effective dose required for 50% inhibition of sound induced seizures upon intraperitoneal dose, 30 min before testing in DBA/2 mice.; format: functional; conditions: ip

Compound: OCC(O)CNc1cc(-c2ccc(Cl)cc2)nc2ccccc12 (stereo not given)
- Ki (Glutamate NMDA receptor): 100 nM

Compound: COCCNc1cc(-c2ccccc2)nc2ccccc12
- Ki (Glutamate NMDA receptor): 7500 nM

Compound: C[C@@H](O)CNc1cc(-c2ccccc2)nc2ccccc12
- Ki (Glutamate NMDA receptor): 450 nM

Compound: CC(C)Oc1ccc(-c2cc(NCC(O)CO)c3ccccc3n2)cc1 (stereo not given)
- Ki (Glutamate NMDA receptor): 500 nM

Compound: OCC(O)CNc1cc(-c2ccc(O)cc2)nc2ccccc12 (stereo not given)
- Ki (Glutamate NMDA receptor): > 4000 nM

Compound: c1ccc(-c2ccc3ccccc3n2)cc1 [2-PHENYLQUINOLINE]
- Ki (Glutamate NMDA receptor): > 35000 nM
- pKa [1]: 5.2

Compound: COc1ccc(-c2cc(NCCO)c3ccccc3n2)cc1
- Ki (Glutamate NMDA receptor): 15 nM
- ED50 (Mus musculus): 25 mg/kg

Compound: CC(=O)CNc1cc(-c2ccccc2)nc2ccccc12
- Ki (Glutamate NMDA receptor): 7900 nM

Compound: COc1ccc(-c2cc(NCC(O)CO)c3ccccc3n2)cc1C (stereo not given)
- Ki (Glutamate NMDA receptor): 26 nM

Compound: OCC(O)CNc1cc(C2CCc3ccccc3C2)nc2ccccc12 (stereo in doubt; 20)
- Ki (Glutamate NMDA receptor): 11 nM

Compound: Cc1ccc(-c2cc(NCC(O)CO)c3ccccc3n2)cc1 (stereo not given)
- Ki (Glutamate NMDA receptor): 23 nM

Compound: OCC(O)CNc1cc(C2CCc3ccccc3C2)nc2ccccc12 (stereo in doubt; 19)
- Ki (Glutamate NMDA receptor): 100 nM

Compound: OCC(O)CNc1cc(-c2ccc3c(c2)CCCC3)nc2ccccc12 (stereo not given)
- Ki (Glutamate NMDA receptor): 22 nM

Compound: C[C@H](O)CNc1cc(-c2ccccc2)nc2ccccc12
- Ki (Glutamate NMDA receptor): 75 nM

Compound: COc1ccc(-c2cc(NCC(O)CO)c3ccccc3n2)cc1 (stereo not given)
- Ki (Glutamate NMDA receptor): 19 nM

Compound: CCCCc1cc(NCC(O)CO)c2ccccc2n1 (stereo not given)
- Ki (Glutamate NMDA receptor): 33000 nM

Compound: Cc1ccc(-c2cc(NCC(O)CO)c3ccccc3n2)cc1Cl (stereo not given)
- Ki (Glutamate NMDA receptor): 17 nM

Compound: OCC(O)CNc1cc(-c2ccccc2)nc2ccccc12 (stereo not given)
- Ki (Glutamate NMDA receptor): 260 nM
- pKa [1]: 8.4

Compound: OCC(O)CNc1ccnc2ccccc12 (stereo not given)
- Ki (Glutamate NMDA receptor): > 35000 nM

Compound: CCCNc1cc(-c2ccccc2)nc2ccccc12
- Ki (Glutamate NMDA receptor): 4900 nM

Compound: Cc1cc(NCC(O)CO)c2ccccc2n1 (stereo not given)
- Ki (Glutamate NMDA receptor): > 40000 nM

Compound: COc1ccc(-c2cc(NC[C@H](C)O)c3ccccc3n2)cc1C
- Ki (Glutamate NMDA receptor): 10 nM
- ED50 (Mus musculus): 17 mg/kg

Compound: CC(O)CNc1cc(-c2ccccc2)nc2ccccc12 (stereo not given)
- Ki (Glutamate NMDA receptor): 260 nM

Compound: Cc1ccc(-c2cc(NC[C@H](C)O)c3ccccc3n2)cc1Cl
- Ki (Glutamate NMDA receptor): 10 nM
- ED50 (Mus musculus): 12 mg/kg

Compound: OCCNc1cc(N2CCc3ccccc3C2)nc2ccccc12
- Ki (Glutamate NMDA receptor): 3.5 nM
- ED50 (Mus musculus): < 12 mg/kg

Compound: Nc1cc(-c2ccccc2)nc2ccccc12
- Ki (Glutamate NMDA receptor): 413 nM
- pKa [1]: 8.5

Compound: OCCNc1cc(-c2ccccc2)nc2ccccc12
- Ki (Glutamate NMDA receptor): 110 nM

Compound: Cc1ccccc1-c1cc(NCC(O)CO)c2ccccc2n1 (stereo not given)
- Ki (Glutamate NMDA receptor): 3700 nM
